Source: patent publication US10124111B2, “Small molecule dye for molecular imaging and photothermal therapy” (The Board of Trustees of the Leland Stanford Junior …, priority 2015, dated 2018)

Experiments:
[1] = Optical characterization (emission spectrum, quantum yield, photostability); type: physicochemical; details: 808 nm excitation laser
From the text: The NIR fluorescence spectrum was taken using a home-built NIR spectroscopy setup. The excitation source was a 200-W ozone-free mercury/xenon lamp (Oriel), which was dispersed by a monochromator (Oriel) to generate an excitation line with a bandwidth of 15 nm. The excitation light was allowed to pass through the solution sample in a 1-mm-path cuvette (Starna Cells, Inc.), and the emission was collected in a transmission geometry. The […] was collected in the 790-1500 nm emission range. The emitted light was directed into a spectrometer (Acton SP2300i) equipped with a liquid-nitrogen-cooled InGaAs linear array detector (Princeton OMA-V). Spectra were corrected post-collection to account for the sensitivity of the detector and extinction feature of the filter. Photostability was determined by spiking CH1055-PEG into serum, PBS, and DI and exposing it in a 1-mm path length cuvette (Starna Cells, Inc.) to continuous 808 nm excitation at a power density of 0.3 W/cm^2 and taking images every 10 seconds for ˜1 hour. Stability was determined by measuring the ROI and comparing the fluorescence intensity to the starting fluorescence signal.
In order to further increase solubility, the carboxylic acid groups of CH1055 were PEGylated with 2 kDa PEG-NH2 through EDC/NHS chemistry.

[2] = Photoacoustic imaging analysis of phantoms; type: physicochemical
From the text: For studying the PAI properties of the compound, a cuboid container was half filled with 1% agarose gel to half depth. Different concentrations of compounds aqueous solutions were filled into polyethylene capillaries and then the capillaries were laid on the surface of solidified agarose gel. The capillaries were further covered with thin 1% agarose gel to make the surface smooth. PA spectra and PA/US coregistered images were acquired with a LAZR commercial instrument (VevoLAZR; VisualSonics). It is equipped with a LZ-250 linear array transducer and a tunable Nd:YAG laser system (680-970 nm). In our system, the Vevo LAZR PAI System with a laser at excitation wavelength of 700 nm and a focal depth of 10 mm was used to acquire PA and US images. […] Acquisition rate of 5 frames per second was used for all the experiments. The photoacoustic gain was kept at 42 dB, dynamic range at 18 dB and center frequency of 21 MHz for all studies. US and PA images were obtained sequentially. The PA signals reported were the average pixel intensities from within the Regions of Interest (ROIs). Normalization and quantification of the images were carried out using ImageJ.
Fluorophores with the present design not only have NIR II fluorescence, but also show strong absorption in the NIR-I region and show promise for in vivo photoacoustic imaging. […]

[3] = NIR-II fluorescence brightness and quantum yield in DI, PBS, FBS, serum and serum proteins; type: physicochemical
From the text: The compound contains a taurine (2-aminoethanesulfonic acid) group at the carboxyl linkers of CH1055. […] Sulfonating the present NIR-II dyes is a general procedure that can be applied to a number of the NIR-II small molecules described above to increase their solubility.
The absorbance value of both fluorophores (OD 0.02) in each respective media is equivalent at the excitation wavelength (808 nm) to compare relative quantum yields. NIR-IIa fluorescent image of a C57 mouse brain (1300 LP) after an intravenous injection of equivalent doses of CH-4T (200 ms exposure; Panel B) and of CH1055-PEG (1 s exposure; Panel D). The image intensity scales have been compensated to account for the differences in the exposure times needed to clearly resolve brain vasculature.
(§1) This fluorescence enhancement produces a serum quantum yield of up to ˜10% which is on par with ICG and is among the highest quantum yields of all NIR-II fluorophores (including carbon nanotubes). While soluble in PBS, the quantum yield of CH-4T was determined to be ˜0.07%, yet is enhanced ˜60× through complexation with serum proteins in FBS.
Increased brightening of CH-4T also results from protein interactions. A fluorescence emission spectrum of CH1055-PEG and CH-4T in both FBS and PBS was determined. […] The increased intensity (40,000 a.u. around 1000 nm) for CH-4T in FBS was observed.
While CH-4T complexed with proteins produces an incredibly bright contrast agent, pretreatment of the proteins prior to complexation and subsequent isolation of the bright dye-protein complexes can introduce a further increase in brightness. For instance, a short 10 minutes of horn sonication of FBS prior to mixing with CH-4T followed by 10 minutes of heating in a hot water bath at ˜80° C. can boost the brightness of the CH-4T-protein complex by ˜3-4-fold. The effects on the fluorescence emission spectrum of heating and pre-horn sonicating can be seen while the brightness difference of an FBS-CH-4T solution before and after treatment (data not shown). […]

[4] = tested on: human and bovine albumin; experiment: Binding of CH-4T to serum proteins; details: whole blood, HDL
Experimental: as §1

[5] = Aqueous solubility; type: physicochemical; details: water / PBS
[6] = Preliminary animal imaging of CH-4T excretion; type: in vivo
From the text: It is a small molecule dye similar to ICG, Cy5, and IR800, and enables easier access to NIR-II imaging, as it doesn't require a specialized knowledge of nanomaterials which make up the majority of NIR-II fluorophores.

[7] = tested on: shoulder xenograft U87MG tumors; experiment: Lymph node / lymphatic vasculature and tumor imaging after intradermal injection; type: in vivo, immunodeficient nude mice; details: intradermal injection near base of tail
From the text: An emerging fluorescent imaging application of ICG currently undergoing clinical trials is in detecting sentinel lymph nodes (SLN) for surgical resection.(28-30) Selectively removing sentinel lymph nodes alleviates lymphedema and other ailments that would be caused by total lymph node removal performed to prevent cancer metastasis. Fluorescent imaging has many benefits compared to the more traditional detection means that include injecting a colored dye, a radioisotope, or a combination of both. ICG is typically injected near a tumor to visualize the lymphatic vessels draining the tumor as well as the sentinel lymph nodes. […] Immediately after injection, CH1055-PEG drainage into the internodal collecting lymphatic vasculature and the inguinal lymph node became apparent. […] (data not shown)
The gradual increase in fluorescence emanating from the tumor occurred while all lymphatic vessels and nodes were still visible.

Q: For `O=C(O)CCc1ccc(N(c2ccc(CCC(=O)O)cc2)c2ccc(-c3c4c(c(-c5ccc(N(c6ccc(CCC(=O)O)cc6)c6ccc(CCC(=O)O)cc6)cc5)c5nsnc35)N=S=N4)cc2)cc1` [CH1055], which “peak fluorescent emission wavelength” value [1] is on record?
A: Its value is roughly 1055 nm.

Q: And the NIR-I absorption maximum [2]?
A: Its NIR-I absorption maximum is 700 nm.

Q: What about the “wavelength of maximum photoacoustic signal” value ([2]; NIR pulsed laser, 680-970 nm scan) of the same compound?
A: Its value is 700 nm.

Q: For `O=C(CCc1ccc(N(c2ccc(CCC(=O)NCCS(=O)(=O)O)cc2)c2ccc(-c3c4c(c(-c5ccc(N(c6ccc(CCC(=O)NCCS(=O)(=O)O)cc6)c6ccc(CCC(=O)NCCS(=O)(=O)O)cc6)cc5)c5nsnc35)N=S=N4)cc2)cc1)NCCS(=O)(=O)O` [CH-4T], which quantum yield ([3]; in PBS) is on record?
A: The quantum yield was roughly 0.07%.

Q: And the serum quantum yield ([3]; in serum, complexed with serum proteins)?
A: Its serum quantum yield is no more than 10%.

Q: And the quantum yield ([3]; with treated FBS (sonicated, heated))?
A: Its quantum yield is roughly 13%.

Q: And the “binding to serum proteins” value [4]?
A: Its value is “strong binding”.

Q: And the aqueous solubility [5]?
A: The aqueous solubility was “highly soluble”.

Q: What about the excretion kinetics [6] of the same compound?
A: Its excretion kinetics is “resemble that of ICG”.

Q: For `CC1(C)C(/C=C/C=C/C=C/C=C2\N(CCCCS(=O)(=O)O)c3ccc4ccccc4c3C2(C)C)=[N+](CCCCS(=O)(=O)[O-])c2ccc3ccccc3c21` [ICG, indocyanine green], which “liver signal after intradermal injection” value [7] is on record?
A: The value was “obvious liver signal”.

Q: And the “tumor fluorescence after intradermal injection” value [7]?
A: The value was “little tumor signal was observed”.
